# Test results: patent US6673793B2, “Oxazinoquinolones useful for the treatment of viral infections” (Pharmacia & Upjohn Co., priority 2000, dated 2004)
# “And” between values parts separate entries of the source, which are not always exact repeats. Equal entries are not always repeated. Structures can show the parent of a compound that is named as a salt.
# Target: T1, CMV polymerase (Human cytomegalovirus, UniProt P08546)
# T1 construct: made in house; host or cells: recombinant baculovirus-infected SF-9 cells
# Test: HCMV polymerase assay, scintillation proximity assay (SPA), modified version
# Format: biochemical
# Settings: CMV polymerase IC50 (μM), modified HCMV polymerase SPA assay: compounds diluted in 100% DMSO, 4.5 mM DTT in polymerase buffer, different lot of CMV polymerase
# Experimental: The HCMV polymerase assay is performed using a scintillation proximity assay (SPA) as described in several references, such as N. D. Cook, et al., Pharmaceutical Manufacturing International, pages 49-53 (1992); K. Takeuchi, Laboratory Practice, September issue (1992); U.S. Pat. No. 4,568,649 (1986); which are incorporated by reference herein. Reactions are performed in 96-well plates. The assay is conducted in 100 μl volume with 5.4 mM HEPES (pH 7.5), 11.7 mM KCl, 4.5 mM MgCl2, 0.36 mg/ml BSA, and 90 nM ^3H-dTTP. Assays are run with and without CHAPS, (3-[(3-Cholamidopropyl)-dimethylammonio]-1-propane-sulfonate) at a final concentration of 2 mM. HCMV polymerase is diluted in enzyme dilution buffer containing 50% glycerol, 250 mM NaCl, 10 mM HEPES (pH 7.5), 100 μg/ml BSA, and 0.01% sodium azide. The HCMV polymerase, which is expressed in recombinant baculovirus-infected SF-9 cells and purified according to literature procedures, is added at 10% (or 10 μl) of the final reaction volume, i.e., 100 μl. Compounds are diluted in 50% DMSO and 10 μl are added to each well. Control wells contain an equivalent concentration of DMSO. Unless noted otherwise, reactions are initiated via the addition of 6 nM biotinylated poly(dA)-oligo(dT) template/primer to reaction mixtures containing the enzyme, substrate, and compounds of interest. Plates are incubated in a 25 C. or 37 C. H2O bath and terminated via the addition of 40 μl/reaction of 0.5 M EDTA (pH 8) per well. Reactions are terminated within the time-frame during which substrate incorporation is linear and varied depending upon the enzyme and conditions used, i.e., 30 min. for HCMV polymerase. Ten μl of streptavidin-SPA beads (20 mg/ml in PBS/10% glycerol) are added following termination of the reaction. Plates are incubated 10 min. at 37 C., then equilibrated to room temperature, and counted on a Packard Topcount. Linear regressions are performed and IC50's are calculated using computer software.
# A modified version of the above HCMV polymerase assay is performed as described above, but with the following changes: Compounds are diluted in 100% DMSO until final dilution into assay buffer. In the previous assay, compounds are diluted in 50% DMSO. 4.5 mM dithiotherotol (DTT) is added to the polymerase buffer.
# T1 sequence (P08546 whole entry): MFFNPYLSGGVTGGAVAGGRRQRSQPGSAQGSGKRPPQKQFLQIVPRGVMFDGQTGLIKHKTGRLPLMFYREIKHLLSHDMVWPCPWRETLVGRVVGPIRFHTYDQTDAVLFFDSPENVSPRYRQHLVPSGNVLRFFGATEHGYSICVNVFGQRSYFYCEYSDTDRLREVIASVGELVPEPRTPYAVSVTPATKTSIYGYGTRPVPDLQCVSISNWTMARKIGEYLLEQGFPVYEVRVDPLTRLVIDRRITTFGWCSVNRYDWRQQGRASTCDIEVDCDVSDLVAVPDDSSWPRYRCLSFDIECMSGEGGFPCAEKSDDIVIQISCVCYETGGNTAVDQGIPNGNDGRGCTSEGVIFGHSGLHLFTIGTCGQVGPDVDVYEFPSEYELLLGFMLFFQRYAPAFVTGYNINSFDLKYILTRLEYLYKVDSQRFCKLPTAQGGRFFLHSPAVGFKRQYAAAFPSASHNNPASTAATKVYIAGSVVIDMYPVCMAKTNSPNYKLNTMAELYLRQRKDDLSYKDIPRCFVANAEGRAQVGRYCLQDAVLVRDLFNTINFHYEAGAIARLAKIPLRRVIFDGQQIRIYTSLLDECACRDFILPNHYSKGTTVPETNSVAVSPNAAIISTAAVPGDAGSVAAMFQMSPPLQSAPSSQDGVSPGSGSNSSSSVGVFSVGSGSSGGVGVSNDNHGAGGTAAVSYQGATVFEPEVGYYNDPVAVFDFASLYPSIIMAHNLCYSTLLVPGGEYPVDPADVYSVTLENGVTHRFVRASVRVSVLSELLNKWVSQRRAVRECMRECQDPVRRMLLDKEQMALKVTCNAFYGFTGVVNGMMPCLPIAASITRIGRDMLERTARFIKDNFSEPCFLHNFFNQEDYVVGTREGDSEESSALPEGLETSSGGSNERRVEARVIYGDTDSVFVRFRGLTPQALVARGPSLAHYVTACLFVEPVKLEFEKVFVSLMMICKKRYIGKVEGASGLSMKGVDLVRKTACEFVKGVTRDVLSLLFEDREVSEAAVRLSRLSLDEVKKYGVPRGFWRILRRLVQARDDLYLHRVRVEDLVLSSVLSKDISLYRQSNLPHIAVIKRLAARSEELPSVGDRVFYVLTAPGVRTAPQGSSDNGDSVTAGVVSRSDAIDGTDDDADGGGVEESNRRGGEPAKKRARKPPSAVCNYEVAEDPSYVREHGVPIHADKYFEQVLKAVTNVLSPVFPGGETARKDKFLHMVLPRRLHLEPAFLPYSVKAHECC
row,Compound,IC50
1,"COP(=O)(OC)OCC1Cn2cc(C(=O)NCc3ccc(Cl)cc3)c(=O)c3cc(CN4CCOCC4)cc(c32)O1 (centres unmarked) [Example 26, [6-{[(4-Chlorobenzyl)amino]carbonyl}-9-(4-morpholinylmethyl)-7-oxo-2,3-dihydro-7H-[1,4]oxazino[2,3,4-ij]quinolin-2-yl]methyl dimethyl phosphate]",0.53 µM

# Same assay, conditions: modified HCMV polymerase SPA assay: compounds diluted in 100% DMSO, 4.5 mM DTT in polymerase buffer, different lot of CMV polymerase; read-out: CMV polymerase IC50
row,Compound,IC50
1,"O=C(NCc1ccc(Cl)cc1)c1cn2c3c(cc(CN4CCOCC4)cc3c1=O)OC(CO)C2 (single isomer, unassigned) [Example 20, N-(4-Chlorobenzyl)-2-(R or S)-(hydroxymethyl)-9-(4-morpholinylmethyl)-7-oxo-2,3-dihydro-7H-[1,4]oxazino[2,3,4-ij]quinoline-6-carboxamide]",0.35 µM
2,"O=C(NCc1ccc(Cl)cc1)c1cn2c3c(cc(CN4CCOCC4)cc3c1=O)OC(CO)C2 (single isomer, unassigned) [Example 21, N-(4-Chlorobenzyl)-2-(R or S)-(hydroxymethyl)-9-(4-morpholinylmethyl)-7-oxo-2,3-dihydro-7H-[1,4]oxazino[2,3,4-ij]quinoline-6-carboxamide]",0.67 µM
3,"O=C(NCc1ccc(Cl)cc1)c1cn2c3c(cc(CN4CCOCC4)cc3c1=O)OC(CNCc1cccnc1)C2 (single isomer, unassigned) [Example 22, N-(4-chlorobenzyl)-9-(4-morpholinylmethyl)-7-oxo-2-(R or S)-{[(3-pyridinylmethyl)amino]methyl}-2,3-dihydro-7H-[1,4]oxazino[2,3,4-ij]quinoline-6-carboxamide]",0.3 µM
4,"O=C(NCc1ccc(Cl)cc1)c1cn2c3c(cc(CN4CCOCC4)cc3c1=O)OC(CNCc1cccnc1)C2 (single isomer, unassigned) [Example 23, N-(4-Chlorobenzyl)-9-(4-morpholinylmethyl)-7-oxo-2-(R or S)-{[3-pyridinylmethyl)amino]methyl}-2,3-dihydro-7H-[1,4]oxazino[2,3,4-ij]quinoline-6-carboxamide]",1.1 µM
5,"O=C(NCc1ccc(Cl)cc1)c1cn2c3c(cc(CN4CCOCC4)cc3c1=O)OC(c1ccccn1)C2 (single isomer, unassigned) [Example 57, N-(4-Chlorobenzyl)-9-(morpholin-4-ylmethyl)-7-oxo-2-(R or S)-pyridin-2-yl-2,3-dihydro-7H-[1,4]oxazino[2,3,4-ij]quinoline-6-carboxamide]",0.68 µM and 0.32 µM
6,"O=C(NCc1ccc(Cl)cc1)c1cn2c3c(cc(CN4CCOCC4)cc3c1=O)OC(c1cccnc1)C2 (single isomer, unassigned) [Example 58, N-(4-Chlorobenzyl)-9-(morpholin-4-ylmethyl)-7-oxo-2-(R or S)-pyridin-3-yl-2,3-dihydro-7H-[1,4]oxazino[2,3,4-ij]quinoline-6-carboxamide]",0.57 µM and 0.27 µM
7,"O=C(NCc1ccc(Cl)cc1)c1cn2c3c(cc(CN4CCOCC4)cc3c1=O)OC(CO)C2 (centres unmarked) [Example 1, N-(4-Chlorobenzyl)-2-(hydroxymethyl)-9-(4-morpholinylmethyl)-7-oxo-2,3-dihydro-7H-[1,4]oxazino[2,3,4-ij]quinoline-6-carboxamide]",0.61 µM
8,"O=C(NCc1ccc(Cl)cc1)c1cn2c3c(cc(CN4CCOCC4)cc3c1=O)OC(CNCC(O)CO)C2 (centres unmarked) [Example 6, N-(4-Chlorobenzyl)-2-{[(2,3-dihydroxypropyl)amino]methyl}-9-(4-morpholinylmethyl)-7-oxo-2,3-dihydro-7H-[1,4]oxazino[2,3,4-ij]quinoline-6-carboxamide]",0.66 µM
9,"O=C(NCc1ccc(Cl)cc1)c1cn2c3c(cc(CN4CCOCC4)cc3c1=O)OC(CNCCO)C2 (centres unmarked) [Example 7, N-(4-Chlorobenzyl)-2-{[(2-hydroxyethyl)amino]methyl}-9-(4-morpholinylmethyl)-7-oxo-2,3-dihydro-7H-[1,4]oxazino[2,3,4-ij]quinoline-6-carboxamide]",0.67 µM
10,"O=C(NCc1ccc(Cl)cc1)c1cn2c3c(cc(CN4CCOCC4)cc3c1=O)OC(CN(CCO)CCO)C2 (centres unmarked) [Example 9, 2-{[bis(2-Hydroxyethyl)amino]methyl}-N-(4-chlorobenzyl)-9-(4-morpholinylmethyl)-7-oxo-2,3-dihydro-7H-[1,4]oxazino[2,3,4-ij]quinoline-6-carboxamide]",0.59 µM
11,"O=C(NCc1ccc(Cl)cc1)c1cn2c3c(cc(CN4CCOCC4)cc3c1=O)OC(CNCc1ccccn1)C2 (centres unmarked) [Example 10, N-(4-Chlorobenzyl)-9-(4-morpholinylmethyl)-7-oxo-2-{[(2-pyridinylmethyl)amino]methyl}-2,3-dihydro-7H-[1,4]oxazino[2,3,4-ij]quinoline-6-carboxamide]",0.62 µM
12,"O=C(NCc1ccc(Cl)cc1)c1cn2c3c(cc(CN4CCOCC4)cc3c1=O)OC(CNCc1cccnc1)C2 (centres unmarked) [Example 11, N-(4-Chlorobenzyl)-9-(4-morpholinylmethyl)-7-oxo-2-{[(3-pyridinylmethyl)amino]methyl}-2,3-dihydro-7H-[1,4]oxazino[2,3,4-ij]quinoline-6-carboxamide]",0.54 µM
13,"O=C(NCc1ccc(Cl)cc1)c1cn2c3c(cc(CN4CCOCC4)cc3c1=O)OC(CSCCO)C2 (centres unmarked) [Example 16, N-(4-Chlorobenzyl)-2-{[(2-hydroxyethyl)sulfanyl]methyl}-9-(4-morpholinylmethyl)-7-oxo-2,3-dihydro-7H-[1,4]oxazino[2,3,4-ij]quinoline-6-carboxamide]",0.42 µM
14,Cn1ccnc1SCC1Cn2cc(C(=O)NCc3ccc(Cl)cc3)c(=O)c3cc(CN4CCOCC4)cc(c32)O1 (centres unmarked) [Example 17],0.27 µM
15,"O=C(NCc1ccc(Cl)cc1)c1cn2c3c(cc(CN4CCOCC4)cc3c1=O)OC(CSCC(O)CO)C2 (centres unmarked) [Example 19, N-(4-Chlorobenzyl)-2-{[(2,3-dihydroxypropyl)sulfanyl]methyl}-9-(4-morpholinylmethyl)-7-oxo-2,3-dihydro-7H-[1,4]oxazino[2,3,4-ij]quinoline-6-carboxamide]",0.57 µM
16,"CN(CCS(=O)(=O)O)C(=O)CCCCCCC(=O)OCC1Cn2cc(C(=O)NCc3ccc(Cl)cc3)c(=O)c3cc(CN4CCOCC4)cc(c32)O1 (centres unmarked) [Example 25, 2-[(8-{[6-{[(4-Chlorobenzyl)amino]carbonyl}-9-(4-morpholinylmethyl)-7-oxo-2,3-dihydro-7H-[1,4]oxazino[2,3,4-ij]quinolin-2-yl]methoxy}-8-oxooctanoyl)(methyl)amino]ethanesulfonic acid sodium salt]",1.3 µM
17,"O=C(NCc1ccc(Cl)cc1)c1cn2c3c(cc(CN4CCOCC4)cc3c1=O)OC(c1ccccc1)C2 (centres unmarked) [Example 27, N-(4-Chlorobenzyl)-9-(4-morpholinylmethyl)-7-oxo-2-phenyl-2,3-dihydro-7H-[1,4]oxazino[2,3,4-ij]quinoline-6-carboxamide]",0.92 µM
18,"O=C(NCc1ccc(Cl)cc1)c1cn2c3c(cc(CN4CCOCC4)cc3c1=O)OCC2c1ccccc1 (centres unmarked) [Example 29, N-(4-Chlorobenzyl)-9-(4-morpholinylmethyl)-7-oxo-3-phenyl-2,3-dihydro-7H-[1,4]oxazino[2,3,4-ij]quinoline-6-carboxamide]",1 µM
19,"O=C(NCc1ccc(Cl)cc1)c1cn2c3c(cc(CN4CCOCC4)cc3c1=O)OCC2CN1CCOCC1 (centres unmarked) [Example 30, N-(4-Chlorobenzyl)-3,9-bis(4-morpholinylmethyl)-7-oxo-2,3-dihydro-7H-[1,4]oxazino[2,3,4-ij]quinoline-6-carboxamide]",0.97 µM
20,"O=C(NCc1ccc(Cl)cc1)c1cn2c3c(cc(C#CCO)cc3c1=O)OCC2(CO)CO [Example 31, N-(4-Chlorobenzyl)-3,3-bis(hydroxymethyl)-9-(3-hydroxy-1-propynyl)-7-oxo-2,3-dihydro-7H-[1,4]oxazino[2,3,4-ij]quinoline-6-carboxamide]",5 µM
21,"O=C(NCc1ccc(Cl)cc1)c1cn2c3c(cc(CCCO)cc3c1=O)OCC2(CO)CO [Example 32, N-(4-Chlorobenzyl)-3,3-bis(hydroxymethyl)-9-(3-hydroxypropyl)-7-oxo-2,3-dihydro-7H-[1,4]oxazino[2,3,4-ij]quinoline-6-carboxamide]",3 µM
22,"O=C(NCc1ccc(Cl)cc1)c1cn2c3c(cc(CN4CCOCC4)cc3c1=O)OC(c1ccccn1)C2 (centres unmarked) [Example 33, N-(4-Chlorobenzyl)-9-(4-morpholinylmethyl)-7-oxo-2-(2-pyridinyl)-2,3-dihydro-7H1-[1,4]oxazino[2,3,4-ij]quinoline-6-carboxamide]",0.52 µM
